Drawing on PubChem BioAssay (NCI), this text covers GI50 and TGI for seven compounds.

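Following 48 hours of exposure in 96-well plates, responses at five concentrations were used to interpolate endpoints linearly. At the GI50, growth is halved. TGI denotes the concentration required for complete inhibition of growth.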

What all share (test): NCI tumour cell line growth inhibition, 48 h
Experiment [1] deals with COLO 205 colon.
The test system of experiment [2] is EKVX NSCLC.
Experiment [3] concerns HOP-92 NSCLC.
Experiment [4] has as its system LOX IMVI melanoma.
For experiment [5], the system named is MDA-MB-435.
For experiment [6], the system named is NCI-H522 lung.
Experiment [7] deals with NCI/ADR-RES ovarian.
For experiment [8], the system named is RXF 393 renal.
For experiment [9], the system named is SK-MEL-2 melanoma.
The subject of experiment [10] is SNB-75 CNS.

Turning to `O=C(Nc1cc(C(F)(F)F)ccc1Cl)c1ccc(NC2=C(Cl)C(=O)N(Cc3ccccc3)C2=O)cc1`, the GI50 in experiment [1] is 16 µM; in experiment [2], 46.6 µM; in [3], 15.7 µM; in experiment [4], 4.11 µM; in [5], 29.5 µM; in experiment [6] it was 11.1 µM. The GI50 is 62.7 µM in [7], 23.7 µM in experiment [8], 18.6 µM in [9] and 56.1 µM in experiment [10]. For the same compound, the TGI is 35.6 µM in [1]; > 100 µM in experiment [2]; 56.3 µM in experiment [3]; > 100 µM in experiment [4]; > 100 µM in experiment [5]; 28 µM in experiment [6]. The TGI in [7] is > 100 µM; in [8] it was 73 µM; in experiment [9], 40.6 µM; in experiment [10], > 100 µM.
Take `COc1ccc(-c2ccncc2)cc1C(N)=O`: the GI50 in experiment [1], in [2], in experiment [3], in [4], in [5] and in experiment [6] was > 25 µM throughout. Further, the GI50 in [7], in [8], in experiment [9] and in experiment [10] was > 25 µM in each case. Also, the TGI in [1], in experiment [2], in experiment [3], in [4], in experiment [5] and in experiment [6] was > 25 µM in each case. In addition, the TGI in [7], in experiment [8], in experiment [9] and in experiment [10] was > 25 µM in each case.
`NCCSSCCN`: the TGI in experiment [1], in [2], in [3], in experiment [4], in [5] and in experiment [6] was > 100 µM throughout. In addition, the TGI in experiment [7], in experiment [8], in experiment [9] and in [10] was > 100 µM throughout.
Consider `CN(C)CCNc1ccc(CO)c2sc3ccc(O)cc3c(=O)c12`, for which the TGI in experiment [1] turned out to be 16.8 µM; in experiment [2], 19.1 µM; in experiment [3], 7.35 µM; in [4], 6.75 µM; in [5] it was 4.34 µM; in [6], 3.49 µM. Also, the TGI was 17.2 µM in experiment [7], 4.44 µM in experiment [8], 11.6 µM in [9] and 9.62 µM in experiment [10].
Take `O=C1/C(=C/c2cccc(Br)c2)COc2ccc(O)cc21`: the GI50 in experiment [1] was 3.33 µM; in experiment [2], 4.78 µM; in [3] it was 2.65 µM; in experiment [4], 1.7 µM; in experiment [5] it was 2.13 µM; in experiment [6], 1.46 µM. Besides, the GI50 in [7] is 3.24 µM; in [8] it was 2.12 µM; in [9], 3.79 µM; in experiment [10] it was 1.79 µM. The TGI came to 11.1 µM in experiment [1]; 17.4 µM in experiment [2]; 13.6 µM in experiment [3]; 3.41 µM in experiment [4]; 5.35 µM in experiment [5]; 3.11 µM in experiment [6]. Also, the TGI in experiment [7] is 13.5 µM; in experiment [8], 5.99 µM; in [9], 14.2 µM; in experiment [10] it was 14.6 µM.
Consider `CCCCCCCCCCCCCCCCCC1=NC(C)(C)CN1CC(C)O` (stereo not given), for which the GI50 in experiment [1] was 2.5 µM; in experiment [2], 13.7 µM; in experiment [3], 3.94 µM; in [4], 1.81 µM; in experiment [5] it was 2.08 µM; in experiment [6], 4.5 µM. In addition, the GI50 in experiment [7] is 3.97 µM; in [8], 14.2 µM; in [9], 15.6 µM; in experiment [10] it was 9.11 µM. In addition, the TGI in experiment [1] was 6.61 µM; in experiment [2], 30.1 µM; in [3] it was 17.8 µM; in [4], 3.44 µM; in experiment [5] it was 4.5 µM; in experiment [6], 23.8 µM. In addition, the TGI worked out at 23.6 µM in experiment [7], 31.9 µM in [8], 31 µM in experiment [9] and 23.6 µM in experiment [10].
With `NS(=O)(=O)c1ccc(-n2nc3c(c2-c2ccc(Cl)cc2)Cc2ccccc2-3)cc1`, the GI50 in experiment [1] is 22.8 µM; in experiment [2], 17.1 µM; in [3], 11.6 µM; in [4] it was 19 µM; in experiment [5], 17.8 µM; in [6], 5.63 µM. Also, the GI50 in [7] is 19.6 µM; in experiment [8] it was 17 µM; in experiment [9], 13.6 µM; in experiment [10], 14.6 µM. The TGI stood at 64.1 µM in [1]; 33.5 µM in [2]; 24.5 µM in [3]; 37.4 µM in [4]; 32.6 µM in experiment [5]; 19.3 µM in [6]. Also, the TGI is 44.8 µM in experiment [7], 34.4 µM in experiment [8], 29.3 µM in experiment [9] and 30.5 µM in [10].
